“Also recorded” adds a separate entry of the source. Like-named read-outs stand apart in the source and are kept apart here.
Experiments:
[1] = molecular target: CYP2C19 (Homo sapiens, UniProt P33261); assay: Early toxicity: CYP2C19 inhibition; format: in vitro ADME; settings: Table 4a
[2] = tested on: PMA-differentiated THP-1 cells; assay: Toxicity MTT assay in PMA-differentiated THP-1 cells; format: cell-based, human; settings: Table 2; read-out: Toxicity CC50 ± SD or NOAEL
From the text: (§1) The in vitro antiparasitic activity against L. infantum (MHOM/MA/67/ITMAP-263) and the toxicity against THP-1 macrophages is presented in Table 1.

[3] = as above; format: cell-based, human; settings: human, PMA-differentiated THP-1 cells (macrophages)
From the text: as §1

[4] = tested on: mitochondria; assay: Early toxicity: mitochondrial toxicity; format: cell-based
[5] = tested on: L. infantum (MHOM/MA/67/ITMAP-263) intracellular amastigotes; assay: Anti-parasitic activity against L. infantum intracellular amastigotes (infection with axenic amastigotes luciferase positive); format: cell-based; settings: Table 1
[6] = molecular target: CYP2C9 (Homo sapiens, UniProt P11712); assay: Early toxicity: CYP2C9 inhibition; format: in vitro ADME; settings: human, mean ± SD, Table 4a
[7] = molecular target: CYP3A4 (Homo sapiens, UniProt P08684); assay: Early toxicity: CYP3A4 inhibition; format: in vitro ADME; settings: Table 4a
[8] = molecular target: T1, CYP1A2 (Homo sapiens, UniProt P05177); assay: Early toxicity: CYP1A2 inhibition; format: in vitro ADME; settings: human, mean ± SD, Table 4a
T1 sequence (P05177 1-516): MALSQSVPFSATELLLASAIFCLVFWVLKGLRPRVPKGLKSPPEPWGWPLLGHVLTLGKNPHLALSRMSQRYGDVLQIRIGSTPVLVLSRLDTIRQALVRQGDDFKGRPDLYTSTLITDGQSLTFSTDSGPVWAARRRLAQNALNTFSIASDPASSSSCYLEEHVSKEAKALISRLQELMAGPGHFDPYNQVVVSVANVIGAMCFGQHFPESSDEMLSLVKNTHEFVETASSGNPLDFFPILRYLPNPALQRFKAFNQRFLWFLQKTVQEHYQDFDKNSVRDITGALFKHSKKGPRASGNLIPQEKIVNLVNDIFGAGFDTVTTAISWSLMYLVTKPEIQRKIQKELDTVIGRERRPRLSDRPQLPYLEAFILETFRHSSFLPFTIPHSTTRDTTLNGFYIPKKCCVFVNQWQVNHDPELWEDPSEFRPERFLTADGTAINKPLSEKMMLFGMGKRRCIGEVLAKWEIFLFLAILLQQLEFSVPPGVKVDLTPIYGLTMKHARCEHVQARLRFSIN

[9] = tested on: T. b. brucei L427 WT Blood-Stream Form; assay: Anti-parasitic activity against T. b. brucei blood-stream form (resazurin 72 h assay); format: cell-based; settings: Table 2
[10] = molecular target: CYP2D6 (Homo sapiens, UniProt P10635); assay: Early toxicity: CYP2D6 inhibition; format: in vitro ADME; settings: Table 4a
[11] = tested on: A549; assay: Early toxicity: A549 cell growth; format: cell-based; settings: 10 μM; 100% = not cytotoxic, 0% = cytostatic, −100% = cytotoxic
[12] = molecular target: hERG channel (Homo sapiens, UniProt Q12809); assay: Early toxicity: hERG inhibition
[13] = tested on: L. infantum axenic amastigotes expressing luciferase; assay: In vivo model of infection with L. infantum axenic amastigotes expressing luciferase; settings: ten consecutive oral treatments with 10 mg/kg, 2 weeks after last treatment
Description: FIG. 4 illustrates the in vivo activity of compounds 18 and 19 in a model of infection with L. infantum axenic amastigotes expressing luciferase (10 consecutive treatments with 10 mg/kg of each compound, evaluated by limiting dilution assay 2 weeks after the last treatment).
In vivo activity of compounds 18 and 19 (ten consecutive oral treatments with 10 mg/kg of each compound, followed by a break of 2 weeks after last treatment), was studied in a model of infection with axenic amastigotes expressing luciferase, essentially as described in (Mendes Costa D. et al, J. Sci Rep. 2019 Dec. 12; 9(1):18989; Tavares J. et al., Methods Mol Biol. 2019; 1971:289-301). (FIG. 4).

[14] = Snapshot pharmacokinetics in plasma after oral gavage; format: in vivo, mice; settings: mouse, plasma, po, healthy BALB/c mice, 20 mg/kg gavage, Table 13
Description: Pharmacology of 5-cyclopentadecylpentyl (2-(trimethylammonio)ethyl) phosphate (19) in mice.
Blood samples were collected from the tail vein at 0, 0.5, 0.75, 1, 3, 24 and 72 hours into heparinized tubes. Moreover, biodistribution of the molecule, 72h after administration, was determined in several organs of the treated mice, namely brain, liver, spleen, kidney, heart and bone marrow. […] J Chromatogr B, 865: 55-62) by liquid chromatography mass spectrometry (LC-MS/MS).

Sequence of CYP2D6 (P10635 whole entry): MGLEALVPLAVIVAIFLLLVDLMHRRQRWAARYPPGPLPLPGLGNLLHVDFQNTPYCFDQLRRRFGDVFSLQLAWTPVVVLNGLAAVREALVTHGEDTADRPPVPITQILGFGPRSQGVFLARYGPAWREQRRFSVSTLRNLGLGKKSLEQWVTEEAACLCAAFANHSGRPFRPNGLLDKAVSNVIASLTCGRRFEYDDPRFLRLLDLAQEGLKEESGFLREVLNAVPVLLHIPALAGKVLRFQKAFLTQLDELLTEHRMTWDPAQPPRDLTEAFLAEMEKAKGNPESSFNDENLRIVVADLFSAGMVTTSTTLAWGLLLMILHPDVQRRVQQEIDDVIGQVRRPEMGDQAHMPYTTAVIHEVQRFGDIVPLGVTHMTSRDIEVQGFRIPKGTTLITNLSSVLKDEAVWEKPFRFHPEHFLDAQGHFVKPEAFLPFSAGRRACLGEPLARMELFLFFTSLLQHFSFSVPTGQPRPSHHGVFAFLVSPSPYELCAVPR
Sequence of CYP2C19 (P33261 whole entry): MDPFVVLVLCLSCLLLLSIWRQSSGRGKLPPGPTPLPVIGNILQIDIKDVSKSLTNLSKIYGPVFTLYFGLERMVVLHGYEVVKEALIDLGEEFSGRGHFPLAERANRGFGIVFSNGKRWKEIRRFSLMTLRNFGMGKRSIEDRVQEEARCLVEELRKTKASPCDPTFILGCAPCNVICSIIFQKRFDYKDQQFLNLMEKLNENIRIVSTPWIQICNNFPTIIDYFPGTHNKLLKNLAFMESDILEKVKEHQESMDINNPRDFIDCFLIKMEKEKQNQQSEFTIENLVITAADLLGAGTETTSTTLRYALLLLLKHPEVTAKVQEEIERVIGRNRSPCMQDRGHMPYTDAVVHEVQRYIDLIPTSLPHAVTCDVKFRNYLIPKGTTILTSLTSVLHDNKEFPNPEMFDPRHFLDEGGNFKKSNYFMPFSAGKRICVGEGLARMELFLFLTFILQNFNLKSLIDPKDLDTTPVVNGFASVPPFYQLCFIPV
Sequence of CYP3A4 (P08684 whole entry): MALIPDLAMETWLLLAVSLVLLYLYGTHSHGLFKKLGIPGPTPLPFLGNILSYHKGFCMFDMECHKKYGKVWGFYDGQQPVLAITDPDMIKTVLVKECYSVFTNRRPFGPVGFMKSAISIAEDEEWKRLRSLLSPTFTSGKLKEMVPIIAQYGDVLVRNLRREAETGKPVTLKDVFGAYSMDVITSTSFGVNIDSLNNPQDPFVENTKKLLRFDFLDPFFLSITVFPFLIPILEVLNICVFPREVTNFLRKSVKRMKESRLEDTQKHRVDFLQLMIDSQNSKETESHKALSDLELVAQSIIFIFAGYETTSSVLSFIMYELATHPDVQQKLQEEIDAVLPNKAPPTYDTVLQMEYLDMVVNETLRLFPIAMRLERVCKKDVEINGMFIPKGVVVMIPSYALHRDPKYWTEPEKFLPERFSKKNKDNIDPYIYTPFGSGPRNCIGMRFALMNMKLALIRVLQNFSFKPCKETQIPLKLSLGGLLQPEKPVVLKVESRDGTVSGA
Sequence of hERG channel (Q12809 whole entry): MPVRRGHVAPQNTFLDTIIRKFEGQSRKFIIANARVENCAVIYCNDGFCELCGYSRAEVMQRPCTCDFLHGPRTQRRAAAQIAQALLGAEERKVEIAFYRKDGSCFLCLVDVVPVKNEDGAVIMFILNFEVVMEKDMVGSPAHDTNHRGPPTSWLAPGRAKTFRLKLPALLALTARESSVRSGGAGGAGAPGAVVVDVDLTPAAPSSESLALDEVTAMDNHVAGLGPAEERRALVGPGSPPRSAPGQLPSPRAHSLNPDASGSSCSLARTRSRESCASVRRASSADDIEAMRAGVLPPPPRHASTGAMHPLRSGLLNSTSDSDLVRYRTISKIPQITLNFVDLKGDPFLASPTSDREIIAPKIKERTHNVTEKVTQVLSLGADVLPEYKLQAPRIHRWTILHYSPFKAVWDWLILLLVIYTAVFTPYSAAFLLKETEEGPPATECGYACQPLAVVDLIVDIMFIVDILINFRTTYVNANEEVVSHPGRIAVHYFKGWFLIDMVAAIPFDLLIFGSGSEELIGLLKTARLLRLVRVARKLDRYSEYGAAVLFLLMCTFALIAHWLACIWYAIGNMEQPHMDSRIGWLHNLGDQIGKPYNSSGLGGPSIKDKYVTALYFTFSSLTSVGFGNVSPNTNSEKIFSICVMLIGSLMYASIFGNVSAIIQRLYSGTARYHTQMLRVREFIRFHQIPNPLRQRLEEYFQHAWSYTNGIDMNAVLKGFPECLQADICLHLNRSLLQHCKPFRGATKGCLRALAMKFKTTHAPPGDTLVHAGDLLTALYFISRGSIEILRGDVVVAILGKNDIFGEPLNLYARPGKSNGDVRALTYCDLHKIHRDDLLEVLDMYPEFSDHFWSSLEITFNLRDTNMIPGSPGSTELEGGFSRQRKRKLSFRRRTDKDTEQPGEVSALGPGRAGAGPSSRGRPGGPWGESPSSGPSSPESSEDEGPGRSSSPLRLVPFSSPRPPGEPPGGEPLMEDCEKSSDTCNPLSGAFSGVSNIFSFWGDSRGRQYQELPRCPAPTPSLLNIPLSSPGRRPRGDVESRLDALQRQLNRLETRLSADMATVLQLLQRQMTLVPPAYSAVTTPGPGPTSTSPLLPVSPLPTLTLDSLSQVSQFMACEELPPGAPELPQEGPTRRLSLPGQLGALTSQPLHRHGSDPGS
Sequence of CYP2C9 (P11712 whole entry): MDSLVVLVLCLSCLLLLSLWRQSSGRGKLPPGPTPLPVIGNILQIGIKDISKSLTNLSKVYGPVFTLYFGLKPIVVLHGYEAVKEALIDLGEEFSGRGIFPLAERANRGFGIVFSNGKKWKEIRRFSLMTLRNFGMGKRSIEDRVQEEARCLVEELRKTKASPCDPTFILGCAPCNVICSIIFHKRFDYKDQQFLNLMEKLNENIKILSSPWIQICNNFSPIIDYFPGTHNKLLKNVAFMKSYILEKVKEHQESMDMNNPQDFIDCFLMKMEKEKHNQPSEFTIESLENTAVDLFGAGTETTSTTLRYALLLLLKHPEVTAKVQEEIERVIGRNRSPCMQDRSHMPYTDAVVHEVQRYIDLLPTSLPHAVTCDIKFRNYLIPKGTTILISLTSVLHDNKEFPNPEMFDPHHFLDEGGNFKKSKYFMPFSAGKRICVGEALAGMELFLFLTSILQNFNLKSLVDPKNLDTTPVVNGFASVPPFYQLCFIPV

For `C[N+](C)(C)CCOP(=O)([O-])OCCCCC1CCCCCCCCCCCCCC1` [Compound 18, 4-cyclopentadecylbutyl (2-(trimethylammonio)ethyl) phosphate], the “CYP2C19 interaction / inhibition” value ([1]; 10 μM) was “interact; also recorded: significant inhibition”, the inhibition at 10 µM ([1]; human, mean ± SD) was 33.3 ± 4.67% and the CC50 [2] was greater than 100 µM. The CC50 ([3]; THP-1 macrophages, Table 1, read-out: Toxicity CC50 ± SD or NOAEL) was greater than 100 µM, the IC50 ([3]; Table 4b, read-out: Cytotoxicity THP-1 (IC50)) was greater than 100 µM and the “% mitochondrial toxicity” value ([4]; 10 μM, 100% mitotoxic, 0% not mitotoxic) was 109.49 ± 9.62%. For the same compound, the “mitochondrial toxicity” value ([4]; Table 4b) was “exhibit mitochondrial toxicity”, the inhibition at 10 µM ([5]; Leishmania infantum, 10 μM, read-out: Single Dose Assay 10 μM Mean Inhibitory Activity (%) ± SD) was 97 ± 2% and the IC50 ([5]; Leishmania infantum, read-out: Dose Response Curves IC50 ± SD) was 0.6 ± 0.3 µM. For the same compound, the “Selectivity Index CC50/IC50 or NOAEL/IC50” value ([5]; THP-1 toxicity / L. infantum IC50) was greater than 166, the inhibition at 10 µM [6] was 5.66 ± 5.52% and the “CYP3A4 interaction” value [7] was “interact”. For the same compound, the inhibition at 10 µM ([7]; human, 10 μM, mean ± SD, read-out: % inhibition CYP3A4) was 38.1 ± 2.67%, the inhibition at 10 µM [8] was 14 ± 1.17% and the “activity against T. b. brucei blood-stream form” value [9] was “unexpectedly high activity in the low micromolar range”. The inhibition at 10 µM ([9]; Trypanosoma brucei, 10 μM, read-out: Single Dose Assay 10 μM Mean Inhibitory Activity (%) ± SD) was 91 ± 12%, the IC50 ([9]; Trypanosoma brucei, resazurin 72 h, read-out: Dose Response Curves IC50 ± SD) was 7.44 ± 0.65 µM and the “Selectivity Index CC50/IC50 or NOAEL/IC50” value ([9]; toxicity / T. b. brucei IC50) was greater than 13. The “CYP2D6 interaction / inhibition” value ([10]; 10 μM) was “interact; also recorded: significant inhibition”, the inhibition at 10 µM ([10]; human, mean ± SD) was 64.5 ± 2.92% and the “% cell growth A549” value [11] was 132.80 ± 8.98%. For the same compound, the “Flag for Interference, hERG” value ([12]; Table 4b) was “(no)”, the inhibition at 10 µM ([12]; human) was 34.8 ± 14% and the “parasitic burden in the spleen, liver or bone marrow” value [13] was “not effective”. The AUC(0-inf) ([14]; read-out: AUC (0-∞)) was 262 µg·h/mL, the AUC(0-inf) ([14]; read-out: AUC (0-∞) (μM h/mL)) was 586 µM·h and the Cmax ([14]; read-out: Cmax) was 20.3 µM. It also gave a Cmax ([14]; read-out: Cmax (μg/mL)) of 9.1 µg/mL, a Tmax ([14]; read-out: tmax) of 5 h and a half-life ([14]; read-out: t½ (converted)) of 16.3 h.

Reference: patent US20230365602A1, “COMPOUND FOR USE IN THE TREATMENT OF PROTOZOAL DISEASES AND PROCESS FOR PRODUCTION OF SAID COMPOUND” (QUADREL S.R.L., priority 2020, published 2023)
